Test results taken from publication PMC3662613 (Chemmedchem, 2013).
Read-outs that look alike come from different tables or passages of the source.

Key:
p97 ATPase = p97 ATPase (Homo sapiens, UniProt P55072); assay: p97 ATPase assay; type: biochemical; settings: triplicate, mean ±SD
[1] = tested on: Ub^G76V–GFP (p97-dependent reporter); assay: Ub^G76V–GFP reporter degradation assay, dual reporter HeLa cell line; type: cell-based; settings: read-out: IC50 Ub^G76V–GFP, triplicate, mean ±SD
[2] = tested on: ODD-Luc (p97-independent proteasome substrate); assay: ODD-Luc reporter degradation assay, dual reporter HeLa cell line; type: cell-based; settings: Homo sapiens, read-out: IC50 ODD-Luc
HCT15 = assay: Cytotoxicity / antiproliferative activity; type: cell-based; settings: Homo sapiens
SW403 = assay: Cytotoxicity / antiproliferative activity; type: cell-based; settings: Homo sapiens
ubiquitin conjugates = assay: Ubiquitin conjugate accumulation immunoblot, SW403 cells; settings: 5–10 μM; nuclear plus membrane and cytosolic compartments
[3] = tested on: HMEC, PHMLEB, PHMLER cells; assay: Cellular viability; type: cell-based, human; settings: 24 h, CellTiter-Glo
∼170 kinases = assay: KiNativ kinase profiling, whole panel, PC3 cell lysate; type: binding, Homo sapiens; settings: 20 μM
[4] = HCT-15, 24 h, read-out: Cytotoxicity GI50 HCT15 24 h
[5] = HCT-15, 72 h, read-out: Cytotoxicity GI50 HCT15 72 h
[6] = SW-403, 24 h, read-out: Cytotoxicity GI50 SW403 24 h
[7] = SW-403, 72 h, read-out: Cytotoxicity GI50 SW403 72 h

Chain of p97 ATPase (P55072 whole entry): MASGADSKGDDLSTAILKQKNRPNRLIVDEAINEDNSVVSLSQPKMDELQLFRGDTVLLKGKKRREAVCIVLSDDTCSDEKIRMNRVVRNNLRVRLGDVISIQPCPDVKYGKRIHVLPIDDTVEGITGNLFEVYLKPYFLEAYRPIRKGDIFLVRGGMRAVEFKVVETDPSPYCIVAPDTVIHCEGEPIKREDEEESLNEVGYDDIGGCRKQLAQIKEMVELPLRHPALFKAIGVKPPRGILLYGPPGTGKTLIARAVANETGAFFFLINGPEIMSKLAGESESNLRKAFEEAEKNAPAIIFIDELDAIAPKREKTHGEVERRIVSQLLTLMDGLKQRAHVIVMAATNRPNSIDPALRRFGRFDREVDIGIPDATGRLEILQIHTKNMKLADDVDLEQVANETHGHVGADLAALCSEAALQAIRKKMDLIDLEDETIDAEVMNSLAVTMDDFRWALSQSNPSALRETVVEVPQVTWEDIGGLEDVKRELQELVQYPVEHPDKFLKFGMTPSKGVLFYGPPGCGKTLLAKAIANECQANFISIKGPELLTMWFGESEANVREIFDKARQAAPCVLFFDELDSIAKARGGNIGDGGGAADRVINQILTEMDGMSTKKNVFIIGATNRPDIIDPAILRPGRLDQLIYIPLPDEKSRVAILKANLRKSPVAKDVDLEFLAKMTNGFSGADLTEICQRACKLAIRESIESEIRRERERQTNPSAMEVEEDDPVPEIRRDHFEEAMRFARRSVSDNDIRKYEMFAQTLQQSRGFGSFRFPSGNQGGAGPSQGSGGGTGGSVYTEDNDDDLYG

| Compound | IC50 [2] [µM] | IC50 (p97 ATPase; IC50 ATPase) [µM] | GI50 (HCT15; [4]) [µM] | GI50 (HCT15; [5]) [µM] | GI50 (SW403; [6]) [µM] | GI50 (SW403; [7]) [µM] | also measured |
| --- | --- | --- | --- | --- | --- | --- | --- |
| 2-(2-Amino-5-bromo-1H-benzo[d]imidazol-1-yl)-N-benzyl-8-methoxyquinazolin-4-amine and 2-(2-Amino-6-bromo-1H-benzo[d]imidazol-1-yl)-N-benzyl-8-methoxyquinazolin-4-amine [compound 24] |  |  |  |  |  |  | IC50 (p97 ATPase; read-out: IC50 ATPase): 0.8 ± 0.3 µM; IC50 [1]: 30 ± 10 µM |
| 2-(2-Amino-5-chloro-1H-benzo[d]imidazol-1-yl)-N-benzyl-8-methoxyquinazolin-4-amine and 2-(2-Amino-6-chloro-1H-benzo[d]imidazol-1-yl)-N-benzyl-8-methoxyquinazolin-4-amine [compound 23] |  |  |  |  |  |  | IC50 (p97 ATPase; read-out: IC50 ATPase): 0.7 ± 0.3 µM; IC50 [1]: 31 ± 7 µM |
| 2-(2-Amino-5-fluoro-1H-benzo[d]imidazol-1-yl)-N-benzyl-8-methoxyquinazolin-4-amine and 2-(2-Amino-6-fluoro-1H-benzo[d]imidazol-1-yl)-N-benzyl-8-methoxyquinazolin-4-amine [compound 30] |  |  |  |  |  |  | IC50 (p97 ATPase; read-out: IC50 ATPase): 0.08 ± 0.02 µM; IC50 [1]: 6.8 ± 1 µM |
| 2-(2-Amino-5-methoxy-1H-benzo[d]imidazol-1-yl)-N-benzyl-8-methoxyquinazolin-4-amine and 2-(2-Amino-6-methoxy-1H-benzo[d]imidazol-1-yl)-N-benzyl-8-methoxyquinazolin-4-amine [compound 26] |  |  |  |  |  |  | IC50 (p97 ATPase; read-out: IC50 ATPase): 0.48 ± 0.09 µM; IC50 [1]: 0.96 ± 0.2 µM |
| 2-(2-Amino-5-methyl-1H-benzo[d]imidazol-1-yl)-N-benzyl-8-methoxyquinazolin-4-amine and 2-(2-Amino-6-methyl-1H-benzo[d]imidazol-1-yl)-N-benzyl-8-methoxyquinazolin-4-amine [compound 25] |  |  |  |  |  |  | IC50 (p97 ATPase; read-out: IC50 ATPase): 0.24 ± 0.06 µM; IC50 [1]: 2.5 ± 0.5 µM |
| c1ccc(CNc2nc(NCc3ccccc3)c3ccccc3n2)cc1 [DBeQ, N^2,N^4-dibenzylquinazoline-2,4-diamine] | 56 ± 14 | 1.6 | 3.2 ± 1 | 1.8 ± 0.7 | 2.2 ± 0.6 | 1.4 ± 0.5 | accumulation of ubiquitin conjugates (ubiquitin conjugates): caused accumulation of ubiquitin conjugates; potency on normal vs immortalized and tumorigenic cell lines [3]: slightly greater potency toward the immortalized and transformed cells |
| CO/C1=C\C(C)=C\[C@@H](C)[C@@H](O)[C@@H](C)C/C(C)=C/C=C/[C@H](OC)[C@@H]([C@@H](C)[C@@H](O)[C@H](C)[C@@]2(O)C[C@@H](O)[C@H](C)[C@@H](C(C)C)O2)OC1=O [bafilomycin, reference compound] |  |  |  |  |  |  | potency on normal vs immortalized and tumorigenic cell lines [3]: equal potency |
| CC(C)C[C@H](NC(=O)[C@H](Cc1ccccc1)NC(=O)c1cnccn1)B(O)O [bortezomib, reference compound] |  |  |  |  |  |  | potency on normal vs immortalized and tumorigenic cell lines [3]: equal potency |
| c1ccc(Nc2nc(Nc3ccccc3)c3ccccc3n2)cc1 [compound 9, N^2,N^4-Diphenylquinazoline-2,4-diamine] |  | 2.6 ± 0.8 |  |  |  |  |  |
| COc1cccc2c(NCc3ccccc3)nc(NCc3ccccc3)nc12 [compound 14, N^2,N^4-Dibenzyl-8-methoxyquinazoline-2,4-diamine] | 6.5 ± 1.1 |  | 1.1 ± 0.3 | 0.8 ± 0.3 | 0.8 ± 0.3 | 0.5 ± 0.2 |  |
| c1ccc(CNc2nc(N3CCOc4ccccc43)nc3ccsc23)cc1 [compound 17, 2-(2H-Benzo[b][1,4]oxazin-4(3H)-yl)-N-benzylthieno[3,2-d]pyrimidin-4-amine] | 17 ± 2 |  | 37 ± 7 | 16 ± 5 | 18 ± 10 | 9.7 ± 3.7 |  |
| COc1cccc2c(NCc3ccccc3)nc(-n3c(N)nc4cc(Cl)c(Cl)cc43)nc12 [compound 21, 2-(2-Amino-5,6-dichloro-1H-benzo[d]imidazol-1-yl)-N-benzyl-8-methoxyquinazolin-4-amine] |  | 25 ± 8 |  |  |  |  |  |
| COc1cccc2c(NCc3ccccc3)nc(-n3c(N)nc4c(C)cccc43)nc12 [compound 29, 2-(2-Amino-4-methyl-1H-benzo[d]imidazol-1-yl)-N-benzyl-8-methoxyquinazolin-4-amine] |  | 0.045 ± 0.006 |  |  |  |  |  |
| CCN(CC)CCOc1cccc2c(NCc3ccccc3)nc(N3CCOc4ccccc43)nc12 [compound 35, 2-(2H-Benzo[b][1,4]oxazin-4(3H)-yl)-N-benzyl-8-(2-(diethylamino)ethoxy)quinazolin-4-amine] | 61 ± 6 |  | 13 ± 5 | 7.1 ± 2.5 | 11 ± 5 | 3.9 ± 1 |  |
| CCCCOc1cccc2c(NCc3ccccc3)nc(N3CCOc4ccccc43)nc12 [compound 37, 2-(2H-Benzo[b][1,4]oxazin-4(3H)-yl)-N-benzyl-8-butoxyquinazolin-4-amine] |  | 2.63 ± 0.7 |  |  |  |  |  |
| CCCCNc1ncc2c(-c3ccc(F)cc3)nn(C[C@H]3CC[C@H](N)CC3)c2n1 [pyrazolopyrimidine, reference compound] |  |  |  |  |  |  | number of protein kinases (domains) with >50% inhibition of labeling (∼170 kinases): 56 |

More lines, main results first:

| IC50 [2] [µM] | IC50 (p97 ATPase; IC50 ATPase) [µM] | Compound | GI50 (HCT15; [4]) [µM] | GI50 (HCT15; [5]) [µM] | GI50 (SW403; [6]) [µM] | GI50 (SW403; [7]) [µM] | also measured |
| --- | --- | --- | --- | --- | --- | --- | --- |
| > 20 |  | c1ccc(CNc2nc(N3CCOc4ccccc43)nc3ccccc23)cc1 [compound 15, 2-(2H-Benzo[b][1,4]oxazin-4(3H)-yl)-N-benzylquinazolin-4-amine] | 24 ± 3 | 10 ± 3 | 21 ± 5 | 13 ± 4 |  |
| 10 ± 2 |  | COc1cccc2c(NCc3ccccc3)nc(Nc3nc4ccccc4n3C)nc12 [compound 19, N^4-Benzyl-8-methoxy-N^2-(1-methyl-1H-benzo[d]imidazol-2-yl)quinazoline-2,4-diamine] | 1.7 ± 0.8 | 1.4 ± 0.5 | 1.7 ± 0.7 | 1.4 ± 0.5 |  |
|  | 0.043 ± 0.01 | COc1cccc2c(NCc3ccccc3)nc(-n3c(N)nc4c(F)cccc43)nc12 [compound 27, 2-(2-Amino-4-fluoro-1H-benzo[d]imidazol-1-yl)-N-benzyl-8-methoxyquinazolin-4-amine] |  |  |  |  |  |
|  | 0.5 ± 0.1 | COc1cccc2c(NCc3ccccc3)nc(-n3c(N)nc4cccc(F)c43)nc12 [compound 28, 2-(2-Amino-7-fluoro-1H-benzo[d]imidazol-1-yl)-N-benzyl-8-methoxyquinazolin-4-amine] |  |  |  |  |  |
| > 20 |  | OCCOc1cccc2c(NCc3ccccc3)nc(N3CCOc4ccccc43)nc12 [compound 33, 2-((2-(2H-Benzo[b][1,4]oxazin-4(3H)-yl)-4-(benzylamino)quinazolin-8-yl)oxy)ethanol] | 28 ± 3 | 17 ± 5 | 42 ± 9 | 9.4 ± 2.9 |  |
| 27 ± 5 |  | COCCOc1cccc2c(NCc3ccccc3)nc(N3CCOc4ccccc43)nc12 [compound 34, 2-(2H-Benzo[b][1,4]oxazin-4(3H)-yl)-N-benzyl-8-(2-methoxyethoxy)quinazolin-4-amine] | 12 ± 4 | 9 ± 3 | 15 ± 7 | 7.9 ± 2.7 |  |
| > 20 |  | COc1cccc2c(NCc3ccccc3)nc(N3CCOc4ccccc43)nc12 [compound 38, 2-(2H-Benzo[b][1,4]oxazin-4(3H)-yl)-N-benzyl-8-methoxyquinazolin-4-amine] | 25 ± 5 | 12 ± 3 | 43 ± 11 | 13 ± 4 |  |
|  | 0.4 ± 0.08 | N#CCOc1cccc2c(NCc3ccccc3)nc(N3CCOc4ccccc43)nc12 [compound 39, 2-((2-(2H-Benzo[b][1,4]oxazin-4(3H)-yl)-4-(benzylamino)quinazolin-8-yl)oxy)acetonitrile] |  |  |  |  |  |
| > 20 |  | COc1cccc2c(NCc3ccc(F)cc3)nc(N3CCOc4ccccc43)nc12 [compound 40, 2-(2H-Benzo[b][1,4]oxazin-4(3H)-yl)-N-(4-fluorobenzyl)-8-methoxyquinazolin-4-amine] | 27 ± 4 | 8.9 ± 2.3 | 21 ± 6 | 9.4 ± 2.6 |  |
